Patent US6399581B1, “Compound possessing potent thrombin receptor antagonist activity” (Harbor Branch Oceanographic Institution, Inc., priority 1999, dated 2002)

Columns and labels:
[1] = biological target: T1, C5 a-receptor (Homo sapiens, UniProt P21730); conditions: cited from earlier work
T1 sequence (P21730 1-350): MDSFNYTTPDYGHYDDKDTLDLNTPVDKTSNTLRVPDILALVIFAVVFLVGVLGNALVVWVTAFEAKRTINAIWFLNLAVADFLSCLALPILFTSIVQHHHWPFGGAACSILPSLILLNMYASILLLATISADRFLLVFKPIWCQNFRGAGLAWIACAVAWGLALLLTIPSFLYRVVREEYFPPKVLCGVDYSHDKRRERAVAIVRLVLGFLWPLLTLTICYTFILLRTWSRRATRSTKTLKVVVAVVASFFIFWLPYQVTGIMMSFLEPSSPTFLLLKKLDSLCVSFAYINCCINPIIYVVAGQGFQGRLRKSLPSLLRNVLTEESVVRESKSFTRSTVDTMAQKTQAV

[2] = test system: human washed platelet preparation; assay: U-46619-induced platelet aggregation, human washed platelets; type: cell-based; conditions: U-46619 3 μM
Procedure: (§1) Platelet aggregation assay: Blood was withdrawn from the antecubal vein of healthy human volunteers who had taken no medication for 14 days. The blood (9 volumes) was anti-coagulated with 1 volume of 3.8% w/v tri-sodium citrate, to give a final citrate concentration of 12.9 mM. To each 20 ml volume of anti-coagulated blood 50 μl of a 10 μg/ml prostacyclin (PGI2) solution was added to prevent activation during the platelet isolation process. The prostacyclin-treated blood was then centrifuged (1280×g; 4 minutes) to yield platelet-rich plasma (PRP). […] The supernatant (platelet-poor plasma) was discarded and the platelets resuspended in a Hepes buffer (NaCl (8 g/l); NaHCO3 (1 g/l); KCl (0.2 g/l); KH2 PO4 (0.1 g/l); Hepes (1.2 g/l); D-Glucose (1 g/l) adjusted to a pH of 6.4. The resultant platelet suspension was again centrifuged (1280×g; 8 minutes) to pellet the platelets. The supernatant was discarded and the platelets resuspended in a Hepes buffer of the same composition but adjusted to a pH of 7.4. The platelet count was then adjusted to 300,000 platelets/μl, following quantification on a Sysmex K1000 Haematological analyser and CaCl2 (1 mM) and MgCl2 (0.5 mM) were added back. […]
(§2) Platelet aggregation, in a human washed platelet preparation, was quantified using an optical aggregometer. […]

[3] = biological target: T2, thrombin receptor (Homo sapiens, UniProt P25116); assay: Thrombin receptor antagonist assay using FLIPR: thrombin-induced intracellular calcium mobilization in HeLa cells; type: cell-based; conditions: fluo-3, thrombin 0.3 U/ml
T2 construct: HeLa cells, which constitutively express the thrombin receptor; endogenous in cells; host or cells: HeLa cells
T2 sequence (P25116 22-425): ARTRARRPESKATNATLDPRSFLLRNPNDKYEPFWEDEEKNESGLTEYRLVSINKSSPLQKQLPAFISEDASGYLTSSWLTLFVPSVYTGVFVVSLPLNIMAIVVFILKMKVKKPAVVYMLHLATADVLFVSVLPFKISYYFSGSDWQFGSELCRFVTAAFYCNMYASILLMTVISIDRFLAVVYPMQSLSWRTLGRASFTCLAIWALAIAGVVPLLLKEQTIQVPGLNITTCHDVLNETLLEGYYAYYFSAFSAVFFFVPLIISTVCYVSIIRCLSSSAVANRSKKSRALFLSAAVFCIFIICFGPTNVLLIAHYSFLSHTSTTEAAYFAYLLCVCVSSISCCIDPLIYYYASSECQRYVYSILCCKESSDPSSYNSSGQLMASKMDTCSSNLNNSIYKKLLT
Procedure: Tests were conducted of inhibition of thrombin-induced calcium mobilization in HeLa cells (see FIG. 2). […] The HPLC profiles of the extracts were very similar, and in both cases the biological activity resided in the same chromatographic fractions indicating common active principles. One of these was fully deconvoluted, and several active components were isolated. These were all glycosides of penasterol though differing in the number of sugar residues attached at the C-1 position.
Thrombin receptor antagonist assay using FLIPR (fluorescence)imaging plate reader: HeLa cells were suspended in complete media and the cell density measured then adjusted to give a final cell density of 2.0×10^5/ml. 100 μl of cell suspension was dispensed into 96-well microtitre plates using a Multipdrop 96/384 well plate dispenser. […] Fluorescence output was read every 1 second for the first 20 seconds then every 5 seconds for a further 30 seconds.
An assay was conducted based upon measurement of thrombin-inducedintracellular calcium mobilization in HeLa cells, which constitutively express the thrombin receptor. Intracellular calcium flux was measured using the fluorescent dye fluo-3' which in the absence of calcium ions fluoresces only weakly, but in the presence of calcium increases fluorescence by approximately 100-fold. Fluorescence was measured using a fluorescence imaging plate reader (FLIPR; see FIG. 2).

[4] = biological target: T3, protease-activated receptor 1 (PAR-1) (Homo sapiens, UniProt P25116); assay: SFLLRN-induced platelet aggregation, human washed platelets; type: cell-based
T3 construct: Blood was withdrawn from the antecubal vein of healthy human volunteers; endogenous in cells; host or cells: washed platelets from blood of healthy human volunteers
T3 sequence (P25116 22-425): T2 sequence (P25116 22-425)
Procedure: as §1, §2

[5] = biological target: T3, protease-activated receptor 1 (PAR-1); assay: Thrombin-induced platelet aggregation, human washed platelets; type: cell-based; conditions: thrombin 0.1 U/ml
Procedure: as §1, §2

[6] = test system: liver hepatocyte (HepG2) cells; assay: Toxicity against liver hepatocyte (HepG2) cells; type: cell-based
[7] = test system: rat mast cells; conditions: cited from earlier work

Eryloside E
Antagonism of C5a-receptor binding [1]: antagonist of C5 a-receptorbinding

CC(C)=CCC[C@@H](C)[C@H]1CC[C@@]2(C(=O)O)C3=C(CC[C@]12C)[C@@]1(C)CC[C@H](O[C@@H]2OC[C@H](O)[C@H](O)[C@H]2O[C@@H]2O[C@H](CO)[C@H](O)[C@H](O)[C@H]2O)C(C)(C)[C@@H]1CC3 [Eryloside F, eryloside F]
IC50, inhibition of U-46619-induced platelet aggregation [2]: 1.7 mg/L
Inhibition of thrombin-induced calcium mobilization (thrombin receptor antagonist activity) [3]: most potent activity
Fold more potent against SFLLRN- than against U-46619-induced platelet aggregation ([4]; SFLLRN 3 μM vs U-46619 3 μM): approximately 6 fold
IC50, inhibition of SFLLRN-induced platelet aggregation ([4]; SFLLRN 3 μM, human washed platelets): 0.3 mg/L
Inhibitory potency against thrombin-induced platelet aggregation relative to SFLLRN-induced, fold lower [5]: approximately 20 fold
Toxicity against HepG2 cells [6]: low toxicity

Penasterol
Inhibition of IgE-dependent histamine release [7]: inhibit IgE-dependent histamine release

CC(=O)O[C@H]1CC[C@]2(C)C3=C(CC[C@H]2C1(C)C)[C@]1(C(=O)O)CC[C@H]([C@H](C)CCC=C(C)C)[C@@]1(C)CC3 [acetylpenasterol]
Inhibition of IgE-dependent histamine release [7]: inhibit IgE-dependent histamine release

CC(C)=CCC[C@@H](C)[C@H]1CC[C@@]2(C(=O)O)C3=C(CC[C@]12C)[C@@]1(C)CCC(=O)C(C)(C)[C@@H]1CC3 [penasterone]
Inhibition of IgE-dependent histamine release [7]: inhibit IgE-dependent histamine release
